Data set [1] is described as follows: Rat bioavailability / pharmacokinetics, plasma teriparatide by ELISA. The following applies: for AUCinf / AUClast: mean ± SD (n = 4). The procedure: After anesthesia by intraperitoneal injection of ketamine (45 mg/kg) and xylazine (5 mg/kg) to female Sprague-Dawley rats (200-250 g, 6-7 weeks old), the abdomen of the rat was cut to take out the small intestine, and Examples 1 and 4 and Comparative Examples 1 and 2 prepared above were dispersed in purified water, and then injected into a proximal jejunum in an amount corresponding to 100 μg/kg as teriparatide by 400 μL. In addition, in order to evaluate the relative bioavailability, 150 μL of teriparatide solution dissolved in physiological saline was subcutaneously injected at an amount corresponding to 20 μg/kg as teriparatide.
After drug administration, blood samples were collected 150 μL at regular time intervals and mixed with 3.8% aqueous sodium citrate solution of 50 μL. Thereafter, the blood sample was centrifuged for 15 minutes at 2,500×g, at 4° C., and plasma was collected and stored at −70° C. The teriparatide concentration in plasma was measured at a wavelength of 620 nm using the human PTH (1-34) ELISA kit (ALPCO Diagnostics, USA). The pharmacokinetic parameters are estimated through the non-compartment method using WinNonlin S Software (ver. 5.3; Pharsight Corporation, USA) and are shown in Table 6 and FIG. 1.
For orientation: An ELISA detects its analyte on a solid surface through an enzyme-linked reagent.

Data set [2] in a line: Parallel artificial membrane permeability assay (PAMPA), effective permeability of teriparatide. It counts as in vitro ADME. To be noted: PBS pH 6.8, 200 μg/mL as teriparatide, room temperature, 5 hours, mean ± SD (n = 4). The procedure: Effective permeability (Pe) through the artificial intestinal membrane of Examples 1 and Comparative Examples 1 to 7 prepared above was evaluated using the parallel artificial membrane permeability assay (PAMPA), which is an artificial intestinal membrane permeability evaluation system. First, the samples of Example 1 and Comparative Examples 1 to 7 were dissolved in phosphate buffer (PBS, pH 6.8) to a concentration of 200 μg/mL as teriparatide, and then 200 μL each was added to the donor part of the PAMPA system, and 300 μL of phosphate buffer (PBS, pH 6.8) was filled in the receiving part of the PAMPA system. […] Then, the solution of each well of the receiving part and the donor part was filtered through a membrane filter having a pore diameter of 0.45 μm, and then the concentration of teriparatide permeated through the artificial intestinal membrane was analyzed using the HPLC system under the following conditions.
50 μL of each sample was injected into the HPLC system, and acetonitrile (B) containing 0.1% (w/v) trifluoroacetic acid (TFA) aqueous solution (A) and 0.1% (w/v) TFA as mobile phases were separated by linearly changing the composition of mobile phase B from 51% to 76% for 25 minutes at a flow rate of 1.0 mL/min. Teriparatide was measured at 220 nm, and the effective transmittance (Pe) through the artificial intestinal membrane was calculated by Formula 1 below. […]
In general terms: PAMPA measures passive passage across an artificial lipid membrane.

Data set [3] is described as follows: Apparent permeability through Caco-2 cell monolayer (Transwell). It counts as in vitro ADME. To be noted: Caco-2 monolayer, 200 μM as teriparatide in HBSS, 37° C., up to 5 hours; mean ± SD (n = 4); read-out: Apparent transmittance (Papp). The procedure:
The apparent permeability of the complexes prepared as in Example 1 and Comparative Examples 1 to 7 to the intestinal cell membrane, Caco-2 cell membrane, was evaluated as follows. After Caco-2 cells were treated at a concentration of 1×10^5 cells/mL in 24-well Transwell, respectively, and after culturing the cells for 14 to 16 days, a cell monolayer of the electrical resistance (TEER) value through the Caco-2 cell membrane was >350 Ω·cm^2 was used for the experiment. First, the medium was removed from the Transwell, and then the donor part and receiving part were filled with HBSS and cultured at 37° C. for 20 minutes, then the TEER value was measured again, and then HBSS was removed. […] At 0.5, 1, 2, 3, 4, and 5 hours, 100 μL samples were collected from the receiving part, filtered using a membrane filter (pore 0.45 μm, PVDF), and the concentration of teriparatide permeated through the intestinal cell membrane was analyzed by HPLC under the conditions mentioned in Experimental Example 1. Apparent intestinal cell membrane permeability (Papp) was calculated using Formula 2 below, and the results are shown in Table 3. […]
In general terms: Caco-2 cells form a polarised layer with tight junctions and transporters.

Where [4] appears, read: female, Sprague-Dawley, plasma, sc, 0.02 mg/kg.
Setting [5] is: subcutaneous injection, 0.02 mg/kg as teriparatide.
[6] abbreviates: dosing in jejunum, 0.1 mg/kg as teriparatide.

As for `CC[C@H](C)[C@H](NC(=O)[C@H](CCC(=O)O)NC(=O)[C@H](CO)NC(=O)[C@@H](NC(=O)[C@@H](N)CO)C(C)C)C(=O)N[C@@H](CCC(N)=O)C(=O)N[C@@H](CC(C)C)C(=O)N[C@@H](CCSC)C(=O)N[C@@H](Cc1cnc[nH]1)C(=O)N[C@@H](CC(N)=O)C(=O)N[C@@H](CC(C)C)C(=O)NCC(=O)N[C@@H](CCCCN)C(=O)N[C@@H](Cc1cnc[nH]1)C(=O)N[C@@H](CC(C)C)C(=O)N[C@@H](CC(N)=O)C(=O)N[C@@H](CO)C(=O)N[C@@H](CCSC)C(=O)N[C@@H](CCC(=O)O)C(=O)N[C@@H](CCCN=C(N)N)C(=O)N[C@H](C(=O)N[C@@H](CCC(=O)O)C(=O)N[C@@H](Cc1c[nH]c2ccccc12)C(=O)N[C@@H](CC(C)C)C(=O)N[C@@H](CCCN=C(N)N)C(=O)N[C@@H](CCCCN)C(=O)N[C@@H](CCCCN)C(=O)N[C@@H](CC(C)C)C(=O)N[C@@H](CCC(N)=O)C(=O)N[C@@H](CC(=O)O)C(=O)N[C@H](C(=O)N[C@@H](Cc1cnc[nH]1)C(=O)N[C@@H](CC(N)=O)C(=O)N[C@@H](Cc1ccccc1)C(=O)O)C(C)C)C(C)C` [Teriparatide], in data set [1] (setting [4]), the concentration peaked (Cmax) at 0.805 ± 0.209 ng/mL, the Tmax is 15 min and the bioavailability amounted to 100%. In data set [1] (setting [5]), the AUCinf is 0.765 ± 0.199 ng ·) sh/mL and the AUClast stood at 0.734 ± 0.191 ng ·) sh/mL.
Regarding `CC[C@H](C)[C@H](NC(=O)[C@H](CCC(=O)O)NC(=O)[C@H](CO)NC(=O)[C@@H](NC(=O)[C@@H](N)CO)C(C)C)C(=O)N[C@@H](CCC(N)=O)C(=O)N[C@@H](CC(C)C)C(=O)N[C@@H](CCSC)C(=O)N[C@@H](Cc1cnc[nH]1)C(=O)N[C@@H](CC(N)=O)C(=O)N[C@@H](CC(C)C)C(=O)NCC(=O)N[C@@H](CCCCN)C(=O)N[C@@H](Cc1cnc[nH]1)C(=O)N[C@@H](CC(C)C)C(=O)N[C@@H](CC(N)=O)C(=O)N[C@@H](CO)C(=O)N[C@@H](CCSC)C(=O)N[C@@H](CCC(=O)O)C(=O)N[C@@H](CCCN=C(N)N)C(=O)N[C@H](C(=O)N[C@@H](CCC(=O)O)C(=O)N[C@@H](Cc1c[nH]c2ccccc12)C(=O)N[C@@H](CC(C)C)C(=O)N[C@@H](CCCN=C(N)N)C(=O)N[C@@H](CCCCN)C(=O)N[C@@H](CCCCN)C(=O)N[C@@H](CC(C)C)C(=O)N[C@@H](CCC(N)=O)C(=O)N[C@@H](CC(=O)O)C(=O)N[C@H](C(=O)N[C@@H](Cc1cnc[nH]1)C(=O)N[C@@H](CC(N)=O)C(=O)N[C@@H](Cc1ccccc1)C(=O)O)C(C)C)C(C)C` [compound 1], the “Effective transmittance (Pe)” value in data set [2] is listed as 0.582 ± 0.132 ×10^−6 cm/s. In addition, the apparent permeability (Papp) in data set [3] came out at 0.362 ± 0.045 ×10⁻⁶ cm/s. Moreover, in data set [1] (0.1 mg/kg), the bioavailability was found to be 0.81 ± 0.191%. In data set [1] (setting [6]), this compound displayed an AUCinf of 0.031 ± 0.007 ng ·) sh/mL and an AUClast of 0.030 ± 0.007 ng ·) sh/mL. In data set [1] (in vivo, 0.1 mg/kg), the area under the curve AUC(0-t) was 0.03 ± 0.007 ng·h/mL, the Cmax is 0.041 ± 0.01 ng/mL and the Tmax was 19.8 ± 8.4 min.

One may read the Cmax as the highest concentration seen after dosing. As a reminder, the Tmax is the time at which the peak concentration occurs. Usually bioavailability stands for dose-corrected exposure relative to a reference, in per cent. In general, Papp refers to a coefficient for how fast a substance crosses the barrier. As usually defined, the AUC(0-t) is the area under the concentration-time curve up to a stated or last time point. High values mean more exposure, low ones less exposure.
